In patent publication US12077503B2, “Substituted cyclic amides and their use as herbicides” (FMC CORPORATION, priority 2015, dated 2024):

Experiments:
Assay type in all cases: in vivo
[1] = system: Galium (catchweed bedstraw, Galium aparine); test: Test A postemergence; details: Galium, post-emergence, 240 h, postemergence, read-out: Galium plant response rating; for pest or weed control at 125 g/ha: 125 g ai/ha, visual injury on 0 to 100 scale (0 no effect, 100 complete control), approx. 10 d; for pest or weed control at 500 g/ha: 500 g ai/ha, 0 to 100 scale, 0 is no effect, 100 is complete control
Method in brief: (§1)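 Treatment is preemergence as a directed soil spray after planting, or postemergence at the one- to two-leaf stage, with test chemical in a non-phytotoxic solvent mixture plus surfactant. Plants stay in the greenhouse about 10 d before visual injury scoring on a 0 to 100 scale versus untreated controls.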

[2] = system: barnyardgrass (Echinochloa crus-galli); test: Test A postemergence; details: Echinochloa crus-galli, post-emergence, 240 h, postemergence, read-out: Barnyardgrass plant response rating; for pest or weed control at 125 g/ha: 125 g ai/ha, visual injury on 0 to 100 scale (0 no effect, 100 complete control), approx. 10 d; for pest or weed control at 500 g/ha: 500 g ai/ha, 0 to 100 scale, 0 is no effect, 100 is complete control
Method in brief: as §1

[3] = system: giant foxtail (Setaria faberii); test: Test A postemergence; details: Setaria faberi, post-emergence, 240 h, postemergence, read-out: Foxtail, Giant plant response rating; for pest or weed control at 125 g/ha: 125 g ai/ha, visual injury on 0 to 100 scale (0 no effect, 100 complete control), approx. 10 d; for pest or weed control at 500 g/ha: 500 g ai/ha, 0 to 100 scale, 0 is no effect, 100 is complete control
Method in brief: as §1

[4] = system: ragweed (common ragweed, Ambrosia elatior); test: Test A postemergence; details: Ambrosia artemisiifolia, post-emergence, 240 h, postemergence, read-out: Ragweed plant response rating; for pest or weed control at 125 g/ha: 125 g ai/ha, visual injury on 0 to 100 scale (0 no effect, 100 complete control), approx. 10 d; for pest or weed control at 500 g/ha: 500 g ai/ha, 0 to 100 scale, 0 is no effect, 100 is complete control
Method in brief: as §1

[5] = system: pigweed (Amaranthus retroflexus); test: Test A postemergence; details: Amaranthus retroflexus, post-emergence, 240 h, postemergence, read-out: Pigweed plant response rating; for pest or weed control at 125 g/ha: 125 g ai/ha, visual injury on 0 to 100 scale (0 no effect, 100 complete control), approx. 10 d; for pest or weed control at 500 g/ha: 500 g ai/ha, 0 to 100 scale, 0 is no effect, 100 is complete control
Method in brief: as §1

[6] = system: ryegrass, Italian (Italian ryegrass, Lolium multiflorum); test: Test A postemergence; details: Lolium multiflorum, post-emergence, 240 h, postemergence, read-out: Ryegrass, Italian plant response rating; for pest or weed control at 125 g/ha: 125 g ai/ha, visual injury on 0 to 100 scale (0 no effect, 100 complete control), approx. 10 d; for pest or weed control at 500 g/ha: 500 g ai/ha, 0 to 100 scale, 0 is no effect, 100 is complete control
Method in brief: as §1

corn (Zea mays) = test: Test A postemergence; details: Zea mays, post-emergence, 240 h, postemergence, read-out: Corn plant response rating; for plant injury at 125 g/ha: 125 g ai/ha, visual injury on 0 to 100 scale (0 no effect, 100 complete control), approx. 10 d; for plant injury at 500 g/ha: 500 g ai/ha, 0 to 100 scale, 0 is no effect, 100 is complete control
Method in brief: as §1

[7] = system: wheat (Triticum aestivum); test: Test A postemergence; details: Triticum aestivum, post-emergence, 240 h, postemergence, read-out: Wheat plant response rating; for plant injury at 125 g/ha: 125 g ai/ha, visual injury on 0 to 100 scale (0 no effect, 100 complete control), approx. 10 d; for plant injury at 500 g/ha: 500 g ai/ha, 0 to 100 scale, 0 is no effect, 100 is complete control
Method in brief: as §1

[8] = system: blackgrass (Alopecurus myosuroides); test: Test A postemergence; details: Alopecurus myosuroides, post-emergence, 240 h, postemergence, read-out: Blackgrass plant response rating; for pest or weed control at 125 g/ha: 125 g ai/ha, visual injury on 0 to 100 scale (0 no effect, 100 complete control), approx. 10 d; for pest or weed control at 500 g/ha: 500 g ai/ha, 0 to 100 scale, 0 is no effect, 100 is complete control
Method in brief: as §1

[9] = system: barnyardgrass (Echinochloa crus-galli); test: Test A preemergence; details: Echinochloa crus-galli, pre-emergence, 240 h, preemergence, read-out: Barnyardgrass plant response rating; for pest or weed control at 125 g/ha: 125 g ai/ha, approx. 10 d; for pest or weed control at 500 g/ha: 500 g ai/ha
Method in brief: as §1

[10] = system: giant foxtail (Setaria faberii); test: Test A preemergence; details: Setaria faberi, pre-emergence, 240 h, preemergence, 0 to 100 scale where 0 is no effect and 100 is complete control, read-out: Foxtail, Giant plant response rating; for pest or weed control at 125 g/ha: 125 g ai/ha, approx. 10 d; for pest or weed control at 500 g/ha: 500 g ai/ha
Method in brief: as §1

[11] = system: ragweed (common ragweed, Ambrosia elatior); test: Test A preemergence; details: Ambrosia artemisiifolia, pre-emergence, 240 h, preemergence, 0 to 100 scale where 0 is no effect and 100 is complete control, read-out: Ragweed plant response rating; for pest or weed control at 125 g/ha: 125 g ai/ha, approx. 10 d; for pest or weed control at 500 g/ha: 500 g ai/ha
Method in brief: as §1

[12] = system: pigweed (Amaranthus retroflexus); test: Test A preemergence; details: Amaranthus retroflexus, pre-emergence, 240 h, preemergence, 0 to 100 scale where 0 is no effect and 100 is complete control, read-out: Pigweed plant response rating; for pest or weed control at 125 g/ha: 125 g ai/ha, approx. 10 d; for pest or weed control at 500 g/ha: 500 g ai/ha
[13] = system: ryegrass, Italian (Italian ryegrass, Lolium multiflorum); test: Test A preemergence; details: Lolium multiflorum, pre-emergence, 240 h, preemergence, 0 to 100 scale where 0 is no effect and 100 is complete control, read-out: Ryegrass, Italian plant response rating; for pest or weed control at 125 g/ha: 125 g ai/ha, approx. 10 d; for pest or weed control at 500 g/ha: 500 g ai/ha
Method in brief: as §1

Kochia (Kochia scoparia) = test: Test A preemergence; details: Bassia scoparia, pre-emergence, 240 h, preemergence, 0 to 100 scale where 0 is no effect and 100 is complete control, read-out: Kochia plant response rating; for pest or weed control at 125 g/ha: 125 g ai/ha, approx. 10 d; for pest or weed control at 500 g/ha: 500 g ai/ha
Method in brief: as §1

[14] = 0 to 100 scale where 0 is no effect and 100 is complete control

`CN1C[C@H](c2csc(C(F)F)c2)[C@@H](C(=O)Nc2cccc(F)c2F)C1=O` [Compound 1122] showed a pest or weed control at 125 g/ha [1] of 50%, a pest or weed control at 500 g/ha [1] of 60% and a pest or weed control at 125 g/ha [2] of 90%. It also gave a pest or weed control at 500 g/ha [2] of 90%, a pest or weed control at 125 g/ha [3] of 80% and a pest or weed control at 500 g/ha [3] of 90%. For the same molecule, the pest or weed control at 125 g/ha [4] was 50%, the pest or weed control at 500 g/ha [4] was 50% and the pest or weed control at 125 g/ha [5] was 20%. For the same molecule, the pest or weed control at 500 g/ha [5] was 40%, the pest or weed control at 125 g/ha [6] was 30% and the pest or weed control at 500 g/ha [6] was 60%. For the same molecule, the plant injury at 125 g/ha (corn (Zea mays)) was 50%, the plant injury at 500 g/ha (corn (Zea mays)) was 90% and the plant injury at 125 g/ha [7] was 50%. It also gave a plant injury at 500 g/ha [7] of 70%, a pest or weed control at 125 g/ha [8] of 40% and a pest or weed control at 500 g/ha [8] of 60%. It also gave a pest or weed control at 125 g/ha [9, 14] of 90%, a pest or weed control at 500 g/ha ([9]; visual injury rating about 10 d after treatment, 0 to 100 scale (0 no effect, 100 complete control)) of 90% and a pest or weed control at 125 g/ha [10] of 90%. It also gave a pest or weed control at 500 g/ha [10] of 90%, a pest or weed control at 125 g/ha [11] of 70% and a pest or weed control at 500 g/ha [11] of 80%. The pest or weed control at 125 g/ha [12] was 30%, the pest or weed control at 500 g/ha [12] was 70% and the pest or weed control at 125 g/ha [13] was 70%. The pest or weed control at 500 g/ha [13] was 90%, the pest or weed control at 125 g/ha (Kochia (Kochia scoparia)) was 60% and the pest or weed control at 500 g/ha (Kochia (Kochia scoparia)) was 70%.
Molecule `O=C1NC[C@H](c2ccc(F)c(OC(F)(F)C(F)F)c2)[C@H]1C(=O)Nc1ccccc1F` [Compound 1133] has a pest or weed control at 125 g/ha [1] of 70%, a pest or weed control at 500 g/ha [1] of 70% and a pest or weed control at 125 g/ha [2] of 80%. For the same molecule, the pest or weed control at 500 g/ha [2] was 90%, the pest or weed control at 125 g/ha [3] was 90% and the pest or weed control at 500 g/ha [3] was 90%. It also gave a pest or weed control at 125 g/ha [4] of 60%, a pest or weed control at 500 g/ha [4] of 70% and a pest or weed control at 125 g/ha [5] of 0%. It also gave a pest or weed control at 500 g/ha [5] of 70%, a pest or weed control at 125 g/ha [6] of 20% and a pest or weed control at 500 g/ha [6] of 40%. For the same molecule, the plant injury at 125 g/ha (corn (Zea mays)) was 50%, the plant injury at 500 g/ha (corn (Zea mays)) was 80% and the plant injury at 125 g/ha [7] was 60%. It also gave a plant injury at 500 g/ha [7] of 70%, a pest or weed control at 125 g/ha [8] of 30% and a pest or weed control at 500 g/ha [8] of 70%. It also gave a pest or weed control at 125 g/ha [9, 14] of 90%, a pest or weed control at 500 g/ha [9, 14] of 90% and a pest or weed control at 125 g/ha [10] of 90%. The pest or weed control at 500 g/ha [10] was 90%, the pest or weed control at 125 g/ha [11] was 40% and the pest or weed control at 500 g/ha [11] was 60%. The pest or weed control at 125 g/ha [12] was 30%, the pest or weed control at 500 g/ha [12] was 70% and the pest or weed control at 125 g/ha [13] was 20%. For the same molecule, the pest or weed control at 500 g/ha [13] was 30%, the pest or weed control at 125 g/ha (Kochia (Kochia scoparia)) was 60% and the pest or weed control at 500 g/ha (Kochia (Kochia scoparia)) was 100%.
